The values below come from PMC11758220, “Identification of a Privileged Scaffold for Inhibition of Sterol Transport Proteins through the Synthesis and Ring Distortion of Diverse, Pseudo-Natural Products” (ACS Central Science, 2025).

This assay deals with T1, Aster-A (Homo sapiens, UniProt Q96CP6).
T1 construct: Aster-A(359-547); GST (PreScission-cleavable) (N, cleaved yes); made in house; host or cells: E. coli OverExpress C41
T1 sequence (Q96CP6 359-547): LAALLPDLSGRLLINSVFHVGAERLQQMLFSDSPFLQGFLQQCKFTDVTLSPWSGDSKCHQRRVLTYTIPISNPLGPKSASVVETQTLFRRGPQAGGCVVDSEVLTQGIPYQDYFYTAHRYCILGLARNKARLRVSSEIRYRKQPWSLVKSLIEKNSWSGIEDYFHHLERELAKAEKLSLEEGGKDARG
The assay can be described thus: Differential scanning fluorimetry (DSF), Aster-A. The class given is binding. As to conditions: maximal thermal shift. The text has this:
Protein expression constructs
Human ASTER domains of Aster-A(359-547), -B(364-552) and -C(318-504) were subcloned into a pGEX-6p-2rbs vector, thus introducing the cloning artifact ‘GPLGS’.3 The pGEX-6P-1-GST-OSBP(377- […]
a gift from James H. Hurley (University of California).4 The pHIS_2His6_Thrombin_STARD4(2-205;C75S) plasmid was a gift from Young Jun Im (Chonnam National University).5 STARD5A was a gift from Nicola Burgess-Brown (Addgene plasmid #42392; http://n2t.net/addgene:42392; […]
Protein expression and purification […]
vectors including an N-terminal PreScission-cleavable glutathione S-transferase (GST)-tag were expressed in Escherichia coli (E. coli) OverExpress C41 in Terrific Broth (TB) medium for 16 h at 18 °C after the induction with 0.1 mM isopropyl β-D-1-thiogalactopyranoside (IPTG). Cells were harvested at 3500 × g for 15 minutes and lysed by sonication in buffer containing 50 mM HEPES pH 7.5, 300 mM NaCl, 10 %v/v glycerol, 5 mM dithiothreitol (DTT), 0.1 %v/v Triton X-100 and protease inhibitor mix HP plus (Serva). The lysate was purified by affinity chromatography on a GSTrap FF column (Cytiva) using an ÄKTA Start (Cytiva) in buffer containing 50 mM HEPES pH 7.5, 300 mM NaCl, 10 %v/v glycerol, 5 mM DTT and 0.01 %v/v Triton X-100. The GST-tag was cleaved overnight on the column at 4 °C. […]

Turning to `CC(C)(C)OC(=O)N1CCN(c2ccc3c(c2)C24CCC5CC(CCC52C)OC4=N3)CC1` (centres unmarked) [Compound 19e], the “Aster-A (DSF) ΔTmmax” value is 11.8 °C.

On to `CC12CCC3CC1CCC21C(=Nc2ccc(N4CCOCC4)cc21)O3` (single isomer, unassigned; (-)) [(−)-19a], for which the “Aster-A (DSF) ΔTmmax” value turned out to be 7.5 °C.
